Results: patent US10961200B2, “Small molecule inhibitors of lactate dehydrogenase and methods of use thereof” (THE UNITED STATES OF AMERICA, AS REPRESENTED BY THE …, priority 2014, dated 2021)
pIC50: −log10 of the molar value.

Key:
Human LDHA = Human LDHA (Homo sapiens (Human), UniProt P00338); test: human LDHA primary biochemical assay (resazurin/diaphorase coupled, fluorescence); details: LDHA inhibitory activity
Source text: Test compounds were placed in a Greiner Bio-One (Monroe, N.C.) 1536-well black solid bottom assay plate. 200 millimolar (mM) Tris HCl, pH 7.4, 100 micromolar […] EDTA and 0.01% TWEEN-20™, final concentration, was used as the assay buffer. The LDHA reagent was 2 nanomolar (nM) Human LDHA (Meridian Life Science, Inc., Memphis, Tenn.), final concentration, in assay buffer.

MiaPaCa2 cells = test: cell-based HT lactate assay, colorimetric/fluorometric detection (inhibition of lactate production); details: class symbols, 0 to 3 pluses
Experimental: Cell-based HT Lactate assay is a miniaturized Biovision Lactate Colorimetric/Fluorometric Assay Kit (Cat #K607-100). The assay is roughly a 3.5 hour assay run in a 1536 plate format. Cell number optimization should be run for each cell line to achieve an optimal number in which lactate production equals roughly 90% of the standard curve range. Cell number per well optimization has been performed with the following cell lines: MiaPaCa2—500 cells/well, SNU398—500 cells/well, and P493—500 cells/well.
The lactate activity in Table 8 is represented by 0 to 3 pluses as follows: +++<1 μM; ++1-10 μM; +10-57 μM; and −>57 μM.

[1] = assay of Example 1, activity level classes
[2] = activity level based on IC50 (Table 7)

SMILES	pIC50 (Human LDHA; [1])	pIC50 (MiaPaCa2 cells)	pIC50 (Human LDHA; [2])	pIC50 (MiaPaCa2 cells; Homo sapiens, MIA PaCa-2)
Cc1ccc(-c2cc(-c3nn(-c4nc(C(=O)O)cs4)c(CC4CC4)c3Cc3ccc(S(N)(=O)=O)cc3)ccc2F)cc1 [Compound 284]	> 7.00	> 6.00	–	–
Cc1ccc(-c2cc(-c3nn(-c4nc(C(=O)O)cs4)c(CC4CC4)c3Cc3ccc(S(N)(=O)=O)c(F)c3)ccc2F)cc1 [Compound 288]	> 7.00	> 6.00	–	–
NS(=O)(=O)c1ccc(Cc2c(-c3cccc(-c4ccccc4)c3)nn(-c3nc(C(=O)O)cs3)c2CC2CC2)c(F)c1 [Compound 290]	> 7.00	> 6.00	–	–
N[S+](=O)([O-])c1ccc(Cc2c(-c3ccc(F)c(-c4ccc(C5CC5)cc4)c3)nn(-c3nc(C(=O)O)cs3)c2CC2CC2)cc1 [Compound 294]	> 7.00	> 6.00	–	–
NS(=O)(=O)c1ccc(Cc2c(-c3ccc(F)c(Br)c3)nn(-c3nc(C(=O)O)cs3)c2CC2CC2)cc1 [Compound 296]	> 7.00	5.00 to 6.00	–	–
NS(=O)(=O)c1ccc(Cc2c(-c3cccc(-c4ccccc4)c3)nn(-c3nc(C(=O)O)cs3)c2CC(F)(F)F)cc1 [Compound 304]	6.00 to 7.00	4.24 to 5.00	–	–
CC(C)c1ccc(-c2cc(-c3nn(-c4nc(C(=O)O)cs4)c(CC4CC4)c3Cc3ccc([S+](N)(=O)[O-])cc3)ccc2F)cc1 [Compound 306]	> 7.00	> 6.00	–	–
Cc1ccc(-c2cc(-c3nn(-c4nc(C(=O)O)cs4)c(CC4CC4)c3Cc3ccc(S(N)(=O)=O)cc3F)ccc2F)cc1 [Compound 307]	> 7.00	> 6.00	–	–
N[S+](=O)([O-])c1ccc(Cc2c(-c3ccc(F)c(-c4ccc(F)cc4)c3)nn(-c3nc(C(=O)O)cs3)c2CC2CC2)c(F)c1 [Compound 309]	> 7.00	> 6.00	–	–
N[S+](=O)([O-])c1ccc(Cc2c(-c3ccc(F)c(-c4ccc(F)cc4)c3)nn(-c3nc(C(=O)O)cs3)c2CC2CC2)cc1 [Compound 310]	> 7.00	> 6.00	–	–
N[S+](=O)([O-])c1ccc(Cc2c(-c3ccc(F)c(-c4cccc(F)c4)c3)nn(-c3nc(C(=O)O)cs3)c2CC2CC2)c(F)c1 [Compound 324]	> 7.00	> 6.00	–	–
N[S+](=O)([O-])c1ccc(Cc2c(-c3ccc(F)c(-c4cccc(F)c4)c3)nn(-c3nc(C(=O)O)cs3)c2CC2CC2)cc1F [Compound 326]	> 7.00	> 6.00	–	–
COc1cccc(-c2cc(-c3c(Cc4ccc(S(N)(=O)=O)cc4F)c(CC4CC4)nn3-c3nc(C(=O)O)cs3)ccc2F)c1 [Compound 327]	4.24 to 6.00	4.24 to 5.00	–	–
COc1cccc(-c2cc(-c3nn(-c4nc(C(=O)O)cs4)c(CC4CC4)c3Cc3ccc(S(N)(=O)=O)c(F)c3)ccc2F)c1 [Compound 330]	> 7.00	> 6.00	–	–
NS(=O)(=O)c1ccc(Cc2c(-c3cccc(-c4ccccc4)c3)nn(-c3nc(C(=O)O)cs3)c2CC2CC2)cc1F [Compound 331]	> 7.00	> 6.00	–	–
Cc1ccc(-c2cccc(-c3nn(-c4nc(C(=O)O)cs4)c(CC4CC4)c3Cc3ccc(S(N)(=O)=O)c(F)c3)c2)cc1 [Compound 332]	> 7.00	> 6.00	–	–
NS(=O)(=O)c1ccc(Cc2c(-c3cccc(OC4CCCC4)c3)nn(-c3nc(C(=O)O)cs3)c2CC2CC2)cc1F [Compound 336]	> 7.00	> 6.00	–	–
NS(=O)(=O)c1ccc(Cc2c(-c3cccc(OC4CCCC4)c3)nn(-c3nc(C(=O)O)cs3)c2CC2CC2)cc1 [Compound 337]	> 7.00	> 6.00	–	–
N[S+](=O)([O-])c1ccc(Cc2c(-c3cccc(OC4CCCC4)c3)nn(-c3nc(C(=O)O)cs3)c2CC2CC2)c(F)c1 [Compound 338]	–	–	> 7.00	> 6.00
NS(=O)(=O)c1ccc(Cc2c(-c3cccc(-c4cccc(F)c4)c3)nn(-c3nc(C(=O)O)cs3)c2CC2CC2)cc1F [Compound 365]	–	> 6.00	> 7.00	–
N[S+](=O)([O-])c1ccc(Cc2c(-c3ccc(F)c(-c4ccccc4F)c3)nn(-c3nc(C(=O)O)cs3)c2CC2CC2)cc1F [Compound 366]	–	> 6.00	> 7.00	–
N[S+](=O)([O-])c1ccc(Cc2c(-c3ccc(F)c(-c4ccccc4)c3)nn(-c3nc(C(=O)O)cs3)c2CC2CC2)cc1F [Compound 367]	–	> 6.00	> 7.00	–
NS(=O)(=O)c1cccc(Cc2c(-c3ccc(F)c(-c4cccc(F)c4)c3)nn(-c3nc(C(=O)O)cs3)c2CC2CC2)c1 [Compound 368]	–	4.24 to 5.00	4.24 to 6.00	–
N[S+](=O)([O-])c1ccc(Cc2c(-c3ccc(F)c(C4=CCNCC4)c3)nn(-c3nc(C(=O)O)cs3)c2CC2CC2)cc1F [Compound 369]	–	4.24 to 5.00	> 7.00	–

SMILES	pIC50 (Human LDHA; [1])	pIC50 (MiaPaCa2 cells)	pIC50 (Human LDHA; [2])	pIC50 (MiaPaCa2 cells; Homo sapiens, MIA PaCa-2)
N[S+](=O)([O-])c1ccc(Cc2c(-c3cccc(-c4cccc(F)c4)c3)nn(-c3nc(C(=O)O)cs3)c2CC2CC2)cc1 [Compound 370]	–	5.00 to 6.00	> 7.00	–
N=[S+](N)([O-])c1ccc(Cc2c(-c3ccc(F)c(-c4cccc(F)c4)c3)nn(-c3nc(C(=O)O)cs3)c2CC2CC2)cc1F (stereo not drawn) [Compound 371]	–	> 6.00	> 7.00	–
NS(=O)(=O)c1ccc(Cc2c(-c3cccc(C4CCCC4)c3)nn(-c3nc(C(=O)O)cs3)c2CC2CC2)cc1 [Compound 372]	–	5.00 to 6.00	> 7.00	–
NS(=O)(=O)c1ccc(Cc2c(-c3ccc(F)c(C4CCCC4)c3)nn(-c3nc(C(=O)O)cs3)c2CC2CC2)cc1F [Compound 373]	–	> 6.00	> 7.00	–
N[S+](=O)([O-])c1ccc(Cc2c(-c3ccc(F)c(C4CCCCC4)c3)nn(-c3nc(C(=O)O)cs3)c2CC2CC2)cc1F [Compound 374]	–	> 6.00	> 7.00	–
NS(=O)(=O)c1ccc(Cc2c(-c3ccc(F)c(C4C5CC6CC(C5)CC4C6)c3)nn(-c3nc(C(=O)O)cs3)c2CC2CC2)cc1F (stereo not drawn) [Compound 375]	–	5.00 to 6.00	6.00 to 7.00	–
N[S+](=O)([O-])c1ccc(Cc2c(-c3cccc(S(F)(F)(F)(F)F)c3)nn(-c3nc(C(=O)O)cs3)c2CC2CC2)cc1F [Compound 376]	–	> 6.00	> 7.00	–
CCOC(=O)c1csc(-n2nc(-c3ccc(F)c(-c4cccc(F)c4)c3)c(Cc3ccc([S+](N)(=O)[O-])c(F)c3)c2CC2CC2)n1 [Compound 377]	–	< 4.24	< 4.24	–
NS(=O)(=O)c1ccc(Cc2c(-c3ccc(F)c(CC4CC4)c3)nn(-c3nc(C(=O)O)cs3)c2CC2CC2)cc1F [Compound 378]	–	> 6.00	> 7.00	–
N[S+](=O)([O-])c1ccc(Cc2c(-c3ccc(F)c(C4=COCCC4)c3)nn(-c3nc(C(=O)O)cs3)c2CC2CC2)cc1F [Compound 379]	–	> 6.00	> 7.00	–
N[S+](=O)([O-])c1ccc(Cc2c(-c3ccc(F)c(C4=CCN(C(=O)C5CC5)CC4)c3)nn(-c3nc(C(=O)O)cs3)c2CC2CC2)cc1F [Compound 380]	–	5.00 to 6.00	> 7.00	–
CCC(C)(C)c1cc(-c2nn(-c3nc(C(=O)O)cs3)c(CC3CC3)c2Cc2ccc(S(N)(=O)=O)c(F)c2)ccc1F [Compound 381]	–	> 6.00	> 7.00	–
N[S+](=O)([O-])c1ccc(Cc2c(-c3ccc(F)c(C4CCC4)c3)nn(-c3nc(C(=O)O)cs3)c2CC2CC2)cc1F [Compound 382]	–	> 6.00	> 7.00	–
CC(C)c1cc(-c2nn(-c3nc(C(=O)O)cs3)c(CC3CC3)c2Cc2ccc(S(N)(=O)=O)c(F)c2)ccc1F [Compound 383]	–	> 6.00	> 7.00	–
CC(c1ccccc1)c1cc(-c2nn(-c3nc(C(=O)O)cs3)c(CC3CC3)c2Cc2ccc(S(N)(=O)=O)c(F)c2)ccc1F (stereo not drawn) [Compound 384]	–	> 6.00	> 7.00	–
N[S+](=O)([O-])c1ccc(Cc2c(-c3ccc(F)c(C4CC4)c3)nn(-c3nc(C(=O)O)cs3)c2CC2CC2)cc1F [Compound 385]	–	> 6.00	> 7.00	–
CC(C)(C)Cc1cc(-c2nn(-c3nc(C(=O)O)cs3)c(CC3CC3)c2Cc2ccc(S(N)(=O)=O)c(F)c2)ccc1F [Compound 386]	–	> 6.00	> 7.00	–
N[S+](=O)([O-])c1ccc(Cc2c(-c3ccc(F)c(-c4cccc(CN5CCOCC5)c4)c3)nn(-c3nc(C(=O)O)cs3)c2CC2CC2)cc1F [Compound 387]	–	5.00 to 6.00	> 7.00	–
N[S+](=O)([O-])c1ccc(Cc2c(-c3ccc(F)c(CCCCC(F)(F)F)c3)nn(-c3nc(C(=O)O)cs3)c2CC2CC2)cc1F [Compound 388]	–	5.00 to 6.00	> 7.00	–
CNS(=N)(=O)c1ccc(Cc2c(-c3ccc(F)c(-c4cccc(F)c4)c3)nn(-c3nc(C(=O)O)cs3)c2CC2CC2)cc1F (stereo not drawn) [Compound 389]	–	5.00 to 6.00	6.00 to 7.00	–
CN1CCC(c2cc(-c3nn(-c4nc(C(=O)O)cs4)c(CC4CC4)c3Cc3ccc([S+](N)(=O)[O-])c(F)c3)ccc2F)CC1 [Compound 390]	–	< 4.24	> 7.00	–
N[S+](=O)([O-])c1ccc(Cc2c(-c3ccc(F)c(C4CCOCC4)c3)nn(-c3nc(C(=O)O)cs3)c2CC2CC2)cc1F [Compound 391]	–	> 6.00	> 7.00	–
CCOC(=O)c1csc(-n2nc(-c3cccc(-c4ccccc4)c3)c(Cc3ccc(S(N)(=O)=O)c(F)c3)c2CC2CC2)n1 [Compound 393]	–	< 4.24	< 4.24	–
NS(=O)(=O)c1ccc(Cc2c(-c3cccc(N4CCC(F)(F)CC4)c3)nn(-c3nc(C(=O)O)cs3)c2CC2CC2)cc1F [Compound 394]	–	4.24 to 5.00	> 7.00	–
